Results taken from patent US20050209140A1, “Methods of controlling axonal growth” (MASSACHUSETTS INSTITUTE OF TECHNOLOGY, priority 1996, published 2005).
“Also recorded” adds a separate entry of the source. Where a SMILES comes first, the peptide text is derived from it.

Legend:
retinal explants (RGCs) = assay: Retinotectal explant coculture: cell death in retinal explants and retinal axon growth into tectal slices; assay type: cell-based, mouse
Description: Brains were dissected into ice-cold Gey's balanced salt solution enriched with glucose. […] Retinal explants were abutted against tectal slices. Tissues were placed on the microporous membrane of Millicell wells (Millipore) and maintained in NeuralBasal medium supplemented with B27 (GIBCO Inc., New York) at 37° C. for five days. To exclude the possibility that tectal tissues from mutant mice may affect axonal growth of RGCs, a series of parallel experiments were perforemd in which one retinal explant of each mouse was confronted with the tectum from the same mouse, while the second retinal explant was placed against the tectum from another mouse. With this arrangement, retinal explants from each animal had the possibility of being cocultured with the tectum from a wild-type, heterozygous, or homozygous animal. The number of regenerating axons was sampled by applying the lipophilic carbocyanine fluorescent label, DiI, in crystals to fixed retinal explants. The cocultures were stored in fixative for two-four weeks to allow diffusion of the dye, and labeled retinal axons were viewed with a fluorescence microscope (Nikon).
(§1) Primary cultures of dissociated retinal cells were prepared from P2 wild-type or transgenic animals. RGCs were prelabeled by injecting DiI solution (25% in Dimethyl Formamide) into the tectal region bilaterally in P0 pups. Cells were plated in 24-cell wells treated with poly-L-lysine ([…], 4° C. overnight) and coated with Human Merosin ([…], r.t., 2 hr)(Meyer-Franke, A. and Barres, B. A. Neuron 15, 805-819 (1995)). Cultures were maintained for 2 to 3 days in NeuralBasal medium supplemented with B27. Trypan blue staining was used to examine the viability of retinal ganglion cells (RGCs). Retinotectal cocultures prepared from wild-type P2 mice were described previously and ZVAD (Z-Val-Ala-Asp-CH2F, Enzyme Systems Products) was added to the culture medium at the time of plating. Cell death was detected by staining with the fluorescent dye, SYTOX green fluorescent dead cell stain (Molecular Probes). Cultures were visualized under an inverted Nikon microscope equipped with Nomarski and epifluorescence illumination.
The effect of the ICE inhibitor was also tested in the explant coculture system with tissue prepared from wild-type P2 mice.

[1] = system: retinal ganglion cells (RGCs); assay: Dissociated retinal cell culture: survival and neurite outgrowth of prelabeled RGCs; assay type: cell-based, mouse
Description: as §1
Whether these two activities of neurons, survival and axonal growth, can be separated in vitro was next examined. […]

CC(C)[C@H](NC(=O)OCc1ccccc1)C(=O)N[C@@H](C)C(=O)N[C@@H](CC(=O)O)C(=O)CF [ZVAD, Z-Val-Ala-Asp-CH2F] (HELM PEPTIDE1{[O=C(OCc1ccccc1)[*:2]].V.A.D.[FC[*:1]]}$$$$V2.0)
ability to promote axonal growth (retinal explants (RGCs); overall conclusion of the ZVAD experiments): not sufficient to promote axonal growth; also recorded: not sufficient to support axonal growth | protection of cells from death in retinal explants compared with bcl-2 transgenic mouse (retinal explants (RGCs); wild-type P2 mice): protected cells from death almost as well as bcl-2 | number of growing retinal axons with increasing concentration of ZVAD (retinal explants (RGCs); wild-type P2 mice, ZVAD 50, 100, 200 µM): did not change significantly | extent of cell death in retinal explants (retinal explants (RGCs); wild-type P2 mice, ZVAD 50, 100, 200 µM, SYTOX green dead cell stain): reduced the extent of cell death; also recorded: number of dying cells in retinal explants decreased | number of axons that invaded tectal slices, ZVAD-treated wild-type cultures versus bcl-2 transgenic mice (retinal explants (RGCs); wild-type P2 mice, fold less than bcl-2 transgenic): 10 fold | neurite outgrowth of labeled RGCs in dissociated culture ([1]; ZVAD-treated RGCs from wild-type P2 animals, no neurotrophic factors added, n=36): round and devoid of neurites | RGC death in dissociated retinal cell culture ([1]; retinae of P2 pups, ZVAD at a concentration of 10 mM or above, after 2 days in culture): effectively reduced RGC death
